Measured values from ChEMBL document CHEMBL1122875, “Orally absorbable cephalosporin antibiotics. 3. Preparation of biologically active R isomer of 7-(3-benzothienylglycylamido)deacetoxycephalosporanic acid” (1985).
≈ marks a conversion by molar mass, not a printed value.

Assays:
Assay type in all cases: functional
Streptococcus pyogenes = assay: The compound was tested for antibacterial activity against Streptococcus pyogenes C203.
Haemophilus influenzae [1] = assay: The compound was tested for antibacterial activity against resistant Haemophilus influenzae 76.
Staphylococcus aureus [2] = assay: Tested for antibacterial activity against methicillin resistant Staphylococcus aureus X400.
Staphylococcus aureus [3] = assay: Tested for antibacterial activity against penicillin G sensitive Staphylococcus aureus X1.1
Streptococcus = assay: The compound was tested for antibacterial activity against Streptococcus group D X66.
Staphylococcus aureus [4] = assay: Tested for antibacterial activity against methicillin resistant Staphylococcus aureus S13E.
Streptococcus pneumoniae = assay: The compound was tested for antibacterial activity against Streptococcus pneumoniae Park.
Staphylococcus aureus [5] = assay: Tested for antibacterial activity against penicillin G resistant Staphylococcus aureus V41.
Haemophilus influenzae [6] = assay: The compound was tested for antibacterial activity against sensitive Haemophilus influenzae C.L.
[7] = tested on: Staphylococcus epidermidis; assay: The compound was tested for antibacterial activity against Staphylococcus epidermidis EP11.

| SMILES | MIC (Streptococcus pyogenes) [µg/mL] | MIC (Haemophilus influenzae [1]) [µg/mL] | MIC (Staphylococcus aureus [2]) [µg/mL] | MIC (Staphylococcus aureus [3]) [µg/mL] | MIC (Streptococcus) [µg/mL] | MIC (Staphylococcus aureus [4]) [µg/mL] | MIC (Streptococcus pneumoniae) [µg/mL] | MIC (Staphylococcus aureus [5]) [µg/mL] | MIC (Haemophilus influenzae [6]) [µg/mL] | MIC [7] [µg/mL] |
| --- | --- | --- | --- | --- | --- | --- | --- | --- | --- | --- |
| CC1=C(C(=O)O)N2C(=O)C(NC(=O)[C@@H](N)c3csc4ccccc34)C2SC1 (some centres not stated) | 16 (≈ 39.7 µM) | 16 (≈ 39.7 µM) | > 128 | 32 (≈ 79.3 µM) | > 128 | 128 (≈ 317 µM) | 16 (≈ 39.7 µM) |  |  |  |
| CC1=C(C(=O)O)N2C(=O)C(NC(=O)[C@H](N)c3csc4ccccc34)C2SC1 (some centres not stated) | 0.5 (≈ 1.24 µM) | 1 (≈ 2.48 µM) | 32 (≈ 79.3 µM) | 1 (≈ 2.48 µM) | 128 (≈ 317 µM) | 4 (≈ 9.91 µM) | 0.5 (≈ 1.24 µM) | 4 (≈ 9.91 µM) | 2 (≈ 4.96 µM) | 4 (≈ 9.91 µM) |
| CC1=C(C(=O)O)N2C(=O)C(NC(=O)C(N)c3csc4ccccc34)C2SC1 (configuration not stated) | 2 (≈ 4.96 µM) | 2 (≈ 4.96 µM) |  | 2 (≈ 4.96 µM) | > 128 | 16 (≈ 39.7 µM) | 4 (≈ 9.91 µM) | 8 (≈ 19.8 µM) | 4 (≈ 9.91 µM) | 4 (≈ 9.91 µM) |
| CC1=C(C(=O)O)N2C(=O)[C@@H](NC(=O)[C@H](N)c3ccccc3)[C@H]2SC1 [CEPHALEXIN ANHYDROUS] | 0.5 (≈ 1.44 µM) | 8 (≈ 23 µM) |  | 4 (≈ 11.5 µM) |  |  | 2 (≈ 5.76 µM) |  | 8 (≈ 23 µM) | 32 (≈ 92.1 µM) |
